Data set [1] has as its system Lepidium sativum. In words: Herbicidal activity against Lepidium sativum assessed as inhibition of radicle growth of seed at 3 to 4 ppm after 69 to 75 hrs in dark. The data set is classed as functional, organism-based.
Data set [2] relates to Lepidium sativum. In words: Herbicidal activity against Lepidium sativum assessed as inhibition of radicle growth of seeds at 1 to 2 ppm after 69 to 75 hrs in dark. The data set is classed as functional. More on the design: scale not given: the % may be the effect or the level left.
The subject of data set [3] is Rattus norvegicus. Nature of the data set: Acute toxicity in rat at 2500 to 5000 mg/kg, po. The data set is classed as organism-based. The conditions noted are these: in vivo. More on the design: dose 2500-5000 mg/kg, route oral.
Data set [4] can be described thus: Toxicity in ip dosed mouse. The format is organism-based. To be noted: in vivo.
Data set [5] relates to Lepidium sativum. Nature of the data set: Herbicidal activity against Lepidium sativum assessed as occurrence of browning and tissue necrosis. The format is functional, organism-based.

Activity calls are given as the source filed them. The calls are words filed in the database; no cut-off is given here.

The source of these data is ChEMBL document CHEMBL1149017, “Herbicidal effects of geldanamycin and nigericin, antibiotics from Streptomyces hygroscopicus” (J Nat Prod, 1986).

As usually defined, the LD50 is the dose expected to kill half of the subjects tested. Regarding `COC1=C2C[C@@H](C)C[C@H](OC)[C@H](O)[C@@H](C)/C=C(\C)[C@H](OC(N)=O)[C@@H](OC)/C=C\C=C(/C)C(=O)NC(=CC1=O)C2=O` [GELDANAMYCIN], the result in data set [1] was Active. Moreover, the Activity is given as 50% in data set [2] and “Toxic” in data set [3]. In data set [4], the LD50 stood at 1 mg/kg.
Turning to `CO[C@@H]1C[C@@H](C[C@H]2CC[C@H](C)[C@H]([C@@H](C)C(=O)O)O2)O[C@]2(O[C@](C)([C@H]3CC[C@@](C)([C@@H]4O[C@@H]([C@H]5O[C@@](O)(CO)[C@H](C)C[C@@H]5C)C[C@@H]4C)O3)C[C@H]2C)[C@@H]1C` [NIGERICIN], in data set [1], the result was Active. Besides, the outcome in data set [5] was inactive. For the same molecule, the Activity in data set [2] is on record as 50%. This molecule showed an LD50 in data set [4] of 10 mg/kg.
